PubChem BioAssay AID1963979 (Molecular Pharmacology Branch, DTP, NCI, 2024)

Test system: 361931-004-R-J1-PDC multicell spheroid viability
Assay: Anticancer human tumor 361931-004-R-J1-PDC patient-derived colon adenocarcinoma cell line growth inhibition [PI3K]
Details: for IC50: curve of first compound; for viability, T/C: stronger effect = lower value; active = viability on the fitted dose curve at most 10% of control; inactive = the rest
Source text: Combinatorial screen of targeted agents with the PI3K inhibitors inavolisib, alpelisib, duvelisib, and copanlisib in multi-cell type tumor spheroids
A high-throughput screen of multi-cell type tumor spheroids was designed to identify active combinations of targeted small molecules and PI3K pathway inhibitors. Complex spheroids include a stromal component modeled by human endothelial cells (HUVEC) and fibroblasts modeled by human mesenchymal stem cells (MSCs). The concentration ranges selected for each drug and investigational agent were based upon clinically achievable concentrations if the clinical Cmax of the agent was known.
Compounds. The drugs and investigational agents: inavolisib (NSC800729), alpelisib (NSC765974), duvelisib (NSC772469), copanlisib (NSC816437), ipatasertib (NSC767898), afuresertib (NSC778305), talazoparib (NSC767125), sapanisertib (NSC764658), selumetinib (NSC741078), tovorafenib (DAY101, NSC766906), vemurafenib (NSC761431), ravoxertinib (NSC781343), sotorasib (NSC818433), MRTX1133 (NSC 836407), abemaciclib (NSC 768073), palbociclib (NSC758247), venetoclax (NSC 766270), SY5609 (NSC837396), enzalutamide (NSC755605), and darolutamide (NSC825331), were obtained from the National Cancer Institute (NCI) Developmental Therapeutics Program Chemical Repository. The FDA-approved anticancer drug set is available from the NCI Developmental Therapeutics Program. […] The stock solutions were prepared in dimethyl sulfoxide (DMSO, Sigma-Aldrich, St. Louis, MO, cat. D2650) at 800-fold the tested concentration and stored at -70 degrees C prior to their use. All drugs and investigational agents were tested over a range starting from a high concentration at or near the clinical Cmax and decreasing in half-log increments. If the clinical Cmax for an agent had not been determined, the highest concentration tested was 10 microM.
Cell Culture. All cells were maintained in an incubator at 37 degrees C and 5% CO2 with 95% humidity. The PDC lines were cultured according to standard operating procedures established by the NCI PDMR (https://pdmr.cancer.gov/sops/default.htm). All PDCs were thawed and cultured in Matrigel-coated flasks prepared with a working solution of 1X Ham's F-12 nutrient mix, without supplementation (Invitrogen, Waltham, MA, cat. 11765054), 100 U/mL penicillin-streptomycin (Invitrogen, cat. 15140122), and 2.5% Matrigel (Corning Inc., Corning, NY, cat. 354248) for the first three passages. The 354836-022-R-J1-PDC, 475296-252-R-J1-PDC, and 997726-040-R-J2-PDC lines were cultured in 6A media, which includes advanced DMEM/F-12 (Thermo Fisher Scientific, cat. 12634028), 10 mM HEPES (Thermo Fisher Scientific, cat. 15630080), 1X GlutaMAX supplement (Thermo Fisher Scientific, cat. 35050061), 0.1 mg/mL primocin (InvivoGen, San Diego, CA, cat. ant-pm-2), 10% defined fetal bovine serum, heat inactivated (HyClone Laboratories Inc., Logan, UT, cat. SH30070.03HI), 50% L-WRN conditioned media (ATCC, cat. CRL-3276), 1.25 mM N-Acetyl-L-cysteine (Sigma-Aldrich, cat. A9165), 10 mM nicotinamide (Sigma-Aldrich, cat. N0636), 1X B-27 supplement (Thermo Fisher Scientific, cat. 17504044), 1X N-2 supplement (Thermo Fisher Scientific, cat. 17502048), and 10 microM Y-27632 dihydrochloride (Tocris Bioscience, Bristol, United Kingdom, cat. 1254). The 624824-186-R-J2-PDC line was cultured in 6C/Colon 1B media, which includes all 6A media components plus 50 ng/mL human EGF recombinant protein (Thermo Fisher Scientific, cat. PHG0311). […]

[1] = second compound 0.0316 µM, first compound 0.0316 µM
[2] = second compound 0.0316 µM, first compound 0.1 µM
[3] = second compound 0.0316 µM, first compound 0.316 µM
[4] = second compound 0.0316 µM, first compound 1 µM
[5] = second compound 0.1 µM, first compound 0.0316 µM
[6] = second compound 0.1 µM, first compound 0.1 µM
[7] = second compound 0.1 µM, first compound 0.316 µM
[8] = second compound 0.1 µM, first compound 1 µM
[9] = second compound 0.316 µM, first compound 0.0316 µM
[10] = second compound 0.316 µM, first compound 0.1 µM
[11] = second compound 0.316 µM, first compound 0.316 µM
[12] = second compound 0.316 µM, first compound 1 µM
[13] = second compound 1 µM, first compound 0.0316 µM
[14] = second compound 1 µM, first compound 0.1 µM
[15] = second compound 1 µM, first compound 0.316 µM
[16] = second compound 1 µM, first compound 1 µM
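Note: spheroids exposed to agents for seven days before readout.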

CCN1CCN(Cc2ccc(Nc3ncc(F)c(-c4cc(F)c5nc(C)n(C(C)C)c5c4)n3)nc2)CC1 + CC(Nc1ccc2c(c1)OCCn1cc(N3C(=O)OCC3C(F)F)nc1-2)C(N)=O
146 nM: IC50 (second compound 1 µM)
> 1000 nM: IC50 (second compound 0.00316 µM) | IC50 (second compound 0.01 µM) | IC50 (second compound 0.0316 µM)
142 nM: IC50 (second compound 0.316 µM)
504 nM: IC50 (second compound 0.1 µM)
inactive: viability, T/C (second compound 0.00316 µM, first compound 0.00316 µM) 96.2% | viability, T/C (second compound 0.00316 µM, first compound 0.01 µM) 100% | viability, T/C (second compound 0.00316 µM, first compound 0.0316 µM) 91.2% | viability, T/C (second compound 0.00316 µM, first compound 0.1 µM) 86.9% | viability, T/C (second compound 0.00316 µM, first compound 0.316 µM) 86.2% | viability, T/C (second compound 0.00316 µM, first compound 1 µM) 64.3% | viability, T/C (second compound 0.01 µM, first compound 0.00316 µM) 104% | viability, T/C (second compound 0.01 µM, first compound 0.01 µM) 99.1% | viability, T/C (second compound 0.01 µM, first compound 0.0316 µM) 77.5% | viability, T/C (second compound 0.01 µM, first compound 0.1 µM) 81.4% | viability, T/C (second compound 0.01 µM, first compound 0.316 µM) 86.1% | viability, T/C (second compound 0.01 µM, first compound 1 µM) 56.7% | viability, T/C (second compound 0.0316 µM, first compound 0.00316 µM) 91.4% | viability, T/C (second compound 0.0316 µM, first compound 0.01 µM) 98.2% | viability, T/C [1] 76.2% | viability, T/C [2] 80% | viability, T/C [3] 68% | viability, T/C [4] 55.4% | viability, T/C (second compound 0.1 µM, first compound 0.00316 µM) 90% | viability, T/C (second compound 0.1 µM, first compound 0.01 µM) 87.6% | viability, T/C [5] 71.7% | viability, T/C [6] 63.4% | viability, T/C [7] 67.2% | viability, T/C [8] 36.4% | viability, T/C (second compound 0.316 µM, first compound 0.00316 µM) 75.7% | viability, T/C (second compound 0.316 µM, first compound 0.01 µM) 86.4% | viability, T/C [9] 62.8% | viability, T/C [10] 55% | viability, T/C [11] 42.5% | viability, T/C [12] 33.1% | viability, T/C (second compound 1 µM, first compound 0.00316 µM) 75.4% | viability, T/C (second compound 1 µM, first compound 0.01 µM) 75.1% | viability, T/C [13] 54.4% | viability, T/C [14] 56.1% | viability, T/C [15] 45% | viability, T/C [16] 32.2%

CC(Cn1ccc(-c2ccc(C#N)c(Cl)c2)n1)NC(=O)c1cc(C(C)O)[nH]n1 (centres undefined) + Cc1nc(NC(=O)N2CCCC2C(N)=O)sc1-c1ccnc(C(C)(C)C(F)(F)F)c1
> 10000 nM: IC50 (second compound 0.0316 µM) | IC50 (second compound 0.1 µM) | IC50 (second compound 0.316 µM) | IC50 (second compound 1 µM) | IC50 (second compound 3.16 µM) | IC50 (second compound 10 µM)
inactive: viability, T/C [1] 102% | viability, T/C [2] 102% | viability, T/C [3] 96.3% | viability, T/C [4] 100% | viability, T/C (second compound 0.0316 µM, first compound 3.16 µM) 107% | viability, T/C (second compound 0.0316 µM, first compound 10 µM) 98.7% | viability, T/C [5] 105% | viability, T/C [6] 105% | viability, T/C [7] 99.1% | viability, T/C [8] 113% | viability, T/C (second compound 0.1 µM, first compound 3.16 µM) 109% | viability, T/C (second compound 0.1 µM, first compound 10 µM) 101% | viability, T/C [9] 98.5% | viability, T/C [10] 113% | viability, T/C [11] 95.6% | viability, T/C [12] 105% | viability, T/C (second compound 0.316 µM, first compound 3.16 µM) 98.9% | viability, T/C (second compound 0.316 µM, first compound 10 µM) 91.5% | viability, T/C [13] 95.4% | viability, T/C [14] 102% | viability, T/C [15] 87.4% | viability, T/C [16] 96% | viability, T/C (second compound 1 µM, first compound 3.16 µM) 97% | viability, T/C (second compound 1 µM, first compound 10 µM) 84.2% | viability, T/C (second compound 3.16 µM, first compound 0.0316 µM) 87.4% | viability, T/C (second compound 3.16 µM, first compound 0.1 µM) 81.3% | viability, T/C (second compound 3.16 µM, first compound 0.316 µM) 90.7% | viability, T/C (second compound 3.16 µM, first compound 1 µM) 83.6% | viability, T/C (second compound 3.16 µM, first compound 3.16 µM) 94.4% | viability, T/C (second compound 3.16 µM, first compound 10 µM) 79.4% | viability, T/C (second compound 10 µM, first compound 0.0316 µM) 68% | viability, T/C (second compound 10 µM, first compound 0.1 µM) 68% | viability, T/C (second compound 10 µM, first compound 0.316 µM) 72.8% | viability, T/C (second compound 10 µM, first compound 1 µM) 62.4% | viability, T/C (second compound 10 µM, first compound 3.16 µM) 59.8% | viability, T/C (second compound 10 µM, first compound 10 µM) 53%
